Consider 1 molecule from publication PMC10465358 (Nature Microbiology, 2023).

For one test, the target named is T1, P. bivia PulA (Prevotella bivia, UniProt I4Z8K5).
T1 construct: gene PrebiDRAFT_0808
The test can be described thus: BODIPY fluorescent starch amylase assay with purified enzyme. It is filed as biochemical. From the text: BODIPY fluorescent starch amylase assay with purified enzyme on P. bivia PulA | Acarbose inhibited G. vaginalis PulA, P. bivia PulA and P. bivia GH13 enzymes

The target of the next test is T2, G. vaginalis PulA (Gardnerella vaginalis, UniProt A0ACD7VVB6).
T2 construct: gene GAVG_1021; signal peptide removed, N-terminal His6 (pET28a, pETpullGV), E. coli ArcticExpress (DE3), 219 kDa, two alpha-amylase (GH13) domains (D233, D1317)
T2 sequence (A0ACD7VVB6 34-2012): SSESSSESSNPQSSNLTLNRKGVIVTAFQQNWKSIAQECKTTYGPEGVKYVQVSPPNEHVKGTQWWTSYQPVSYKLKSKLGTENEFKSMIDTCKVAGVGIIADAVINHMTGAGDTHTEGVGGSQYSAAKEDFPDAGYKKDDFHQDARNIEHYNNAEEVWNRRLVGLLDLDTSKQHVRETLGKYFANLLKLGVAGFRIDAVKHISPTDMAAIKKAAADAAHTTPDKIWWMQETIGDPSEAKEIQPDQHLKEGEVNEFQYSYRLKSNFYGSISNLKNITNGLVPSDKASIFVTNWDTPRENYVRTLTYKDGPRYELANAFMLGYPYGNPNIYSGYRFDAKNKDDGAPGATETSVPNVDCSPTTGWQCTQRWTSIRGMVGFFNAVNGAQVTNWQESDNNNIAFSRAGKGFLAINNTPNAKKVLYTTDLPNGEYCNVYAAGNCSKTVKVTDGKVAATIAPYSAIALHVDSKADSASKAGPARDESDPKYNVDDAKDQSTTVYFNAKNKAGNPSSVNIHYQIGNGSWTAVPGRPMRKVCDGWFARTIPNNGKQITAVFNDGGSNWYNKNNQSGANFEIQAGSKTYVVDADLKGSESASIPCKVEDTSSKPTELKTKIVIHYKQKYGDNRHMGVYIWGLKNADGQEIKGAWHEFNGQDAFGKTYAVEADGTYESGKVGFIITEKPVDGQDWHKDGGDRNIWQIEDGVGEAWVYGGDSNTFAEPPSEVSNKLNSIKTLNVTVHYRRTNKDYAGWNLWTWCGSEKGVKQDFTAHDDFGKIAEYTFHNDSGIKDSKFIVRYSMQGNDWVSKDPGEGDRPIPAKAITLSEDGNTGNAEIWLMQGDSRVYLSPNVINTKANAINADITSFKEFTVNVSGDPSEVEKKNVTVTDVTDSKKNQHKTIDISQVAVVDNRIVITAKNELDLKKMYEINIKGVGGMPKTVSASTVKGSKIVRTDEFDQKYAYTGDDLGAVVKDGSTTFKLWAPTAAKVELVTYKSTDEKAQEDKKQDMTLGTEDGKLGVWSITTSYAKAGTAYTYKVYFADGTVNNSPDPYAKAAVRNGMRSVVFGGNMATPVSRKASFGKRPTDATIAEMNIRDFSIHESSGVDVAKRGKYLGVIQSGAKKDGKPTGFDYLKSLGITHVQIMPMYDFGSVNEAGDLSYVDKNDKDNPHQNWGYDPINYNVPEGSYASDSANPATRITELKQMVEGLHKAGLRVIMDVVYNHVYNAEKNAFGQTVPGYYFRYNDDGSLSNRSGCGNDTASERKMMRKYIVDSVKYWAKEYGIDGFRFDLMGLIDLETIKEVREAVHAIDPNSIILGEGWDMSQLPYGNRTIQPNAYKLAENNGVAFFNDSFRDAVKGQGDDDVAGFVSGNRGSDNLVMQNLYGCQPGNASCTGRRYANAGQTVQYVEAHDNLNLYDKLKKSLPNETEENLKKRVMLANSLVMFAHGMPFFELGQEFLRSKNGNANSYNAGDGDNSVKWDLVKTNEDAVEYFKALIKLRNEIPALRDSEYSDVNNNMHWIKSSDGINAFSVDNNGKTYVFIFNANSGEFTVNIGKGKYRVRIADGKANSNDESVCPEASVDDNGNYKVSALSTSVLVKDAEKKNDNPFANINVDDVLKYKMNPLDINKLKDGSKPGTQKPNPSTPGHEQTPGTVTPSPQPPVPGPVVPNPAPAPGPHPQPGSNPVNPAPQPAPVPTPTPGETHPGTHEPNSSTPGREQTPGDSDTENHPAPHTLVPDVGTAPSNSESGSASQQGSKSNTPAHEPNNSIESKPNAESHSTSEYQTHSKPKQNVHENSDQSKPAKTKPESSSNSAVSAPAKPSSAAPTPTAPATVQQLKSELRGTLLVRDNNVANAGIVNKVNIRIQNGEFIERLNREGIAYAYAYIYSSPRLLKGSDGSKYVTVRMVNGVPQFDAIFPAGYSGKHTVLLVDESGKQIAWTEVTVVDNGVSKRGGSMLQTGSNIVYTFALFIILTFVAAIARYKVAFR
Kind of test: fluorescent (BODIPY) starch hydrolysis. It counts as biochemical. As to conditions: BODIPY starch substrate; 15 min preincubation; 37 °C; pH not stated; error is 95% confidence interval. An excerpt: fluorescent (BODIPY) starch hydrolysis on G. vaginalis PulA | Acarbose inhibited G. vaginalis PulA, P. bivia PulA and P. bivia GH13 enzymes

T1 sequence (I4Z8K5 23-637 limits assumed): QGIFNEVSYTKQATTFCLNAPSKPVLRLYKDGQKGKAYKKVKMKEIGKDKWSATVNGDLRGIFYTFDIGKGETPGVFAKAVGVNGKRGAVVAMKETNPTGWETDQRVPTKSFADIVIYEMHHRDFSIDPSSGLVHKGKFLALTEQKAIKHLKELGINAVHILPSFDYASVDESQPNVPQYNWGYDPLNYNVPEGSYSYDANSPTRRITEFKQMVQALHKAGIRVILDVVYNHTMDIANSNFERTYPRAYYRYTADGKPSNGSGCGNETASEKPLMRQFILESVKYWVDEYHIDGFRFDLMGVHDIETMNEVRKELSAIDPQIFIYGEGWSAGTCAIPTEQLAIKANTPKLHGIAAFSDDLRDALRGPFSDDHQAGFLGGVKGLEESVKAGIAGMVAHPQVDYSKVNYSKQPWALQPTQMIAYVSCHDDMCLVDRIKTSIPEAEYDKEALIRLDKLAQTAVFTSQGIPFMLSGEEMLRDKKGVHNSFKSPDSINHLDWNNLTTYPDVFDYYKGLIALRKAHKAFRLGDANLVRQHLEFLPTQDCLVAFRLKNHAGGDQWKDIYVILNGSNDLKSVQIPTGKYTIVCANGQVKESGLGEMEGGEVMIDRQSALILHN

The IC50 is the midpoint of a concentration-inhibition curve. A lower IC50 goes with greater potency in that assay. On to `C[C@H]1O[C@H](O[C@H]2[C@H](O)[C@@H](O)[C@@H](O[C@H]3[C@H](O)[C@@H](O)C(O)O[C@@H]3CO)O[C@@H]2CO)[C@H](O)[C@@H](O)[C@@H]1N[C@H]1C=C(CO)[C@@H](O)[C@H](O)[C@H]1O` (some centres unmarked) [acarbose], for which the IC50 against P. bivia PulA is 420 ± 90 µM; against G. vaginalis PulA, 120 ± 30 µM.
